This is an account of results in patent publication US20080176866A1, “NOVEL HETARYL-PHENYLENEDIAMINE-PYRIMIDINES AS PROTEIN KINASE INHIBITORS” (priority 2006, published 2008).

Assay [1] deals with T1, human Aurora-C (Homo sapiens, UniProt Q9UQB9).
T1 construct: GST; made in house; host or cells: transiently transfected HEK293 cells
T1 sequence (Q9UQB9 1-309): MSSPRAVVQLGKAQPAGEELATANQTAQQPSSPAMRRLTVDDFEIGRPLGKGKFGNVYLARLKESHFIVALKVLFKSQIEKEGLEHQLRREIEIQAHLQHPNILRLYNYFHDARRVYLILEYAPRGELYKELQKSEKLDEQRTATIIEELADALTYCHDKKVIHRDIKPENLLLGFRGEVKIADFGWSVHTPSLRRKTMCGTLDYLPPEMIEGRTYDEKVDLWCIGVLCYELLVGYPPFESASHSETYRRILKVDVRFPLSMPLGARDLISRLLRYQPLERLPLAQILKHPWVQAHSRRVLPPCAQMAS
Put plainly: Aurora-C kinase assay (HTRF). The assay is classed as biochemical. The following applies: GST-human Aurora-C, 10 μM ATP. How it is done: The Aurora-C inhibitory activity of the substances of this invention was measured in the Aurora-C-HTRF assay (HTRF=Homogeneous Time Resolved Fluorescence) described in the following paragraphs.
Recombinant fusion protein of GST and human Aurora-C was expressed in transiently transfected HEK293 cells and purified by affinity chromatography on glutathione-Sepharose. The substrate used for the kinase reaction was the biotinylated peptide biotin-Ttds-FMRLRRLSTKYRT (C terminus in amide form) which can be purchased for example from JERINI Peptide Technologies (Berlin). Aurora-C was incubated in the presence of various concentrations of test substances in 5 μL of assay buffer [25 mM Hepes/NaOH pH 7.4, 0.5 mM MnCl2, 2.0 mM dithiothreitol, 0.1 mM sodium orthovanadate, 10 μM adenosine triphosphate (ATP), […] substrate, 0.01% (v/v) TritonX-100 (Sigma), 0.05% (w/v) bovine serum albumin (BSA), 1% (v/v) dimethyl sulphoxide] at 22° C. for 60 min. The concentration of Aurora-C was adapted to the particular activity of the enzyme and adjusted so that the assay operated in the linear range. Typical concentrations were in the region of 0.3 nM. The reaction was stopped by adding 5 μl of a solution of HTRF detection reagents (0.2 μM streptavidin-XLent and 1.4 nM anti-phospho-(Ser/Thr)-Akt substrate-Eu-cryptate (C is biointernational, France, product No. 61P02KAE), a Europium-cryptate-labelled phospho-(Ser/Thr)-Akt substrate antibody [product #9611B, Cell Signaling Technology, Danvers, Mass., USA]) in aqueous EDTA solution (40 mM EDTA, 400 mM KF, 0.05% (w/v) bovine serum albumin (BSA) in 25 mM HEPES/NaOH pH 7.0).
(§1) The resulting mixture was incubated at 22° C. for 1 h in order to allow formation of a complex of the biotinylated phosphorylated substrate and the detection reagents. The amount of phosphorylated substrate was then estimated by measuring the resonance energy transfer from the anti-phospho-(Ser/Thr)-Akt substrate-Eu cryptate to the streptavidin-XLent. For this purpose, the fluorescence emissions at 620 nm and 665 nm after excitation at 350 nm were measured in an HTRF measuring instrument, e.g. a Rubystar (BMG Labtechnologies, Offenburg, Germany) or a Viewlux (Perkin-Elmer). The ratio of the emissions at 665 nm and at 622 nm was taken as a measure of the amount of phosphorylated substrate. The data were normalized (enzymic reaction without inhibitor=0% inhibition, all other assay components but no enzyme=100% inhibition) and IC50 values were calculated with a 4-parameter fit using an inhouse software.
For orientation: Time-resolved FRET reads energy transfer from a long-lived donor to a nearby acceptor.

The target in assay [2] is T2, CDK2/CycE (Homo sapiens, UniProt P24941).
T2 construct: GST; purchased ProQinase GmbH, Freiburg; host or cells: baculovirus-infected insect cells (Sf9)
The experiment in a line: CDK2/CycE kinase assay (HTRF). The assay is classed as biochemical. The following applies: 10 μM ATP. How it is done:
The CDK2/CycE inhibitory activity of the substances of this invention was measured in the CDK2/CycE-HTRF assay (HTRF=Homogeneous Time Resolved Fluorescence) described in the following paragraphs.
Recombinant CDK2-GST and CycE-GST fusion proteins purified from baculovirus-infected insect cells (Sf9) were purchased from ProQinase GmbH, Freiburg. The substrate used for the kinase reaction was the biotinylated peptide biotin-Ttds-YISPLKSPYKISEG (C terminus in amide form) which can be purchased for example from JERINI Peptide Technologies (Berlin).
CDK2/CycE was incubated in the presence of various concentrations of test substances in 5 μL of assay buffer [50 mM Tris/HCl pH 8.0, 10 mM MgCl2, 1.0 mM dithiothreitol, 0.1 mM sodium orthovanadate, 10 μM adenosine triphosphate (ATP), 0.75 μM substrate, 0.01% (v/v) Nonidet-P40 (Sigma), 1% (v/v) dimethyl sulphoxide] at 22° C. for 60 min. The concentration of CDK2/CycE was adapted to the particular activity of the enzyme and adjusted so that the assay operated in the linear range. Typical concentrations were in the region of 1 ng/ml. The reaction was stopped by adding 5 μl of a solution of HTRF detection reagents (0.2 μM streptavidin-XLent and 3.4 nM phospho-(Ser) CDKs substrate antibody [product #2324B, Cell Signaling Technology, Danvers, Mass., USA] and 4 nM Prot-A-EuK [protein A labelled with Europium cryptate from C is biointernational, France, product No. 61 PRAKLB]) in aqueous EDTA solution (100 mM EDTA, 800 mM KF, 0.2% (w/v) bovine serum albumin (BSA) in 100 mM HEPES/NaOH pH 7.0).
as §1, with “Prot-A-EuK” for “anti-phospho-(Ser/Thr)-Akt substrate-Eu cryptate”

Assay [3] deals with T3, KDR kinase (Homo sapiens, UniProt P35968).
T3 construct: GST; purchased ProQinase GmbH, Freiburg; host or cells: baculovirus-infected insect cells (Sf9)
Put plainly: KDR kinase assay (HTRF). The assay is classed as biochemical. The following applies: KDR kinase-GST, 10 μM ATP. How it is done:
The KDR-inhibitory activity of the substances of this invention was measured in the KDR-HTRF assay (HTRF=Homogeneous Time Resolved Fluorescence) described in the following paragraphs.
Recombinant KDR kinase-GST fusion protein purified from baculovirus-infected insect cells (Sf9) was purchased from ProQinase GmbH, Freiburg. The substrate used for the kinase reaction was the biotinylated peptide biotin-Ahx-DFGLARDMYDKEYYSVG (C terminus in acid form) which can be purchased for example from Biosynthan GmbH (Berlin-Buch, Germany).
KDR kinase was incubated in the presence of various concentrations of test substances in 5 μL of assay buffer [50 mM Hepes/NaOH pH 7.0, 25 mM MgCl2, 5 mM MnCl2, 1.0 mM dithiothreitol, 0.1 mM sodium orthovanadate, 10 μM adenosine triphosphate (ATP), 0.5 μM substrate, 0.001% (v/v) Nonidet-P40 (Sigma), 1% (v/v) dimethyl sulphoxide] at 22° C. for 45 min. The concentration of KDR was adapted to the particular activity of the enzyme and adjusted so that the assay operated in the linear range. The reaction was stopped by adding 5 μl of a solution of HTRF detection reagents (0.1 μM streptavidin-XLent and 2 nM PT66-Eu chelate, a Europium chelate-labelled anti-phospho-tyrosine antibody from Perkin Elmer) in aqueous EDTA solution (125 mM EDTA, 0.2% (w/v) bovine serum albumin (BSA) in 50 mM HEPES/NaOH pH 7.0).
as §1, with “of” for “of a complex of”, “streptavidin-XLent and PT66-Eu chelate.” for “detection reagents.”, “PT66-Eu chelate” for “anti-phospho-(Ser/Thr)-Akt substrate-Eu cryptate”

For assay [4], the system named is human MCF7 breast tumour cells. The experiment in a line: MCF7 proliferation assay. The assay is classed as cell-based. The following applies: 96 h, 4 days incubation, crystal violet staining. How it is done: Cultivated human MCF7 breast tumour cells (ATCC HTB-22) were plated out in a density of 5000 cells/measurement point in 200 μl of growth medium (RPMI1640, 10% foetal calf serum, 2 mU/mL insulin, 0.1 nM oestradiol) in a 96-well multititre plate. After 24 hours, the cells from a plate (zero plate) were stained with crystal violet (see below), while the medium in the other plates was replaced by fresh culture medium (200 μl) to which the test substances had been added in various concentrations (0 μM, and in the range 0.01-30 μM; the final concentration of the solvent dimethyl sulphoxide was 0.5%). The cells were incubated in the presence of the test substances for 4 days. The cell proliferation was determined by staining the cells with crystal violet: the cells were fixed by adding 20 μl/measurement point of an 11% strength glutaraldehyde solution at room temperature for 15 min. After the fixed cells had been washed three times with water, the plates were dried at room temperature. The cells were stained by adding 100 μl/measurement point of a 0.1% strength crystal violet solution (pH adjusted to pH 3 by adding acetic acid). After the stained cells had been washed three times with water, the plates were dried at room temperature. The dye was dissolved by adding 100 μl/measurement point of a 10% strength acetic acid solution, and the extinction was determined by photometry at a wavelength of 595 nm. The percentage change in cell growth was calculated by normalizing the measurements to the extinctions of the zero point plate (=0%) and the extinction of the untreated (0 μM) cells (=100%). The IC50 values were determined by means of a 4-parameter fit using the company's own software.

For assay [5], the target named is T4, CDK1/CycB (Homo sapiens, UniProt P06493).
T4 construct: GST; purchased ProQinase GmbH, Freiburg; host or cells: baculovirus-infected insect cells (Sf9)
Put plainly: CDK1/CycB kinase assay. The assay is classed as biochemical. The following applies: 0.5 μM ATP, histone IIIS, 33P filter assay. How it is done:
Recombinant CDK1- and CycB-GST fusion proteins, purified from baculovirus-infected insect cells (Sf9), were purchased from ProQinase GmbH, Freiburg. The histone IIIS used as kinase substrate can be purchased from Sigma.
CDK1/CycB (5 ng/μL) was incubated in the presence of various concentrations of test substances (0 μM, and within the range 0.01-100 μM) in 40 μL of assay buffer [50 mM Tris/HCl pH 8.0, 10 mM MgCl2, 0.1 mM Na ortho-vanadate, 1.0 mM dithiothreitol, 0.025% PEG 20000, 0.5 μM ATP, 10 μM histone IIIIS, 0.2 μCi/measurement point ^33P-gamma ATP, 0.05% NP40, 1.25% dimethyl sulphoxide] at 22° C. for 10 min. The reaction was stopped by adding EDTA solution (250 mM, pH 8.0, 15 μl/measurement point).
15 μl of each reaction mixture were loaded onto P30 filter strips (from Wallac), and non-incorporated ^33P-ATP was removed by washing the filter strips three times in 0.5% strength phosphoric acid for 10 min each time. After the filter strips had been dried at 70° C. for 1 hour, the filter strips were covered with scintillator strips (MeltiLex™ A, from Wallac) and baked at 90° C. for 1 hour. The amount of incorporated ^33P (substrate phosphorylation) was determined by scintillation measurement in a gamma radiation counter (Wallac).
The measured data were normalized to 0% inhibition (enzyme reaction without inhibitor) and 100% inhibition (all assay components except enzyme). The IC50 values were determined by means of a 4-parameter fit using the company's own software.

T3 sequence (P35968 807-1356 limits assumed): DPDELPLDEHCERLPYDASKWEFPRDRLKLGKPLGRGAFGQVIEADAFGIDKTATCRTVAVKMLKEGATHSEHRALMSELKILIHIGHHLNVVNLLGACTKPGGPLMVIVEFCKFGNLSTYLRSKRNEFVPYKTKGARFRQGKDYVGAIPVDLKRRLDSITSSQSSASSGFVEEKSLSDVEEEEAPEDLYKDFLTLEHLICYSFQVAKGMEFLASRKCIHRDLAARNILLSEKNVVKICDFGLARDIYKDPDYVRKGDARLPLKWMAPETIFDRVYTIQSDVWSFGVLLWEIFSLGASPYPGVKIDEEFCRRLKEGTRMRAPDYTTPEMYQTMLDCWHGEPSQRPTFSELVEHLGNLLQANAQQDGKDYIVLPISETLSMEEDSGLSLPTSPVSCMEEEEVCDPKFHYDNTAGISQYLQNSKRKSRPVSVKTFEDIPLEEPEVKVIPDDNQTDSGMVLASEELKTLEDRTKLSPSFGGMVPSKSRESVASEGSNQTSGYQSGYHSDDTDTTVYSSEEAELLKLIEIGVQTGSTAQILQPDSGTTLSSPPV
T4 sequence (P06493 whole entry): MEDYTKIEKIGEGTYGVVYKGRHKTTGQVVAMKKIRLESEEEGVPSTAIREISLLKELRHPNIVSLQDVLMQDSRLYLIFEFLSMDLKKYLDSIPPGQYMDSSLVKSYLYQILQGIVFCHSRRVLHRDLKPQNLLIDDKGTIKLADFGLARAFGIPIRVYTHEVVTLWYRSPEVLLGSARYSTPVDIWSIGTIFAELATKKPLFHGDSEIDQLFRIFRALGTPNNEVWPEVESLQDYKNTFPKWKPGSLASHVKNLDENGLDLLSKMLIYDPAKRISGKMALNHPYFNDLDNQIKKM
T4 sequence (P14635 whole entry partner): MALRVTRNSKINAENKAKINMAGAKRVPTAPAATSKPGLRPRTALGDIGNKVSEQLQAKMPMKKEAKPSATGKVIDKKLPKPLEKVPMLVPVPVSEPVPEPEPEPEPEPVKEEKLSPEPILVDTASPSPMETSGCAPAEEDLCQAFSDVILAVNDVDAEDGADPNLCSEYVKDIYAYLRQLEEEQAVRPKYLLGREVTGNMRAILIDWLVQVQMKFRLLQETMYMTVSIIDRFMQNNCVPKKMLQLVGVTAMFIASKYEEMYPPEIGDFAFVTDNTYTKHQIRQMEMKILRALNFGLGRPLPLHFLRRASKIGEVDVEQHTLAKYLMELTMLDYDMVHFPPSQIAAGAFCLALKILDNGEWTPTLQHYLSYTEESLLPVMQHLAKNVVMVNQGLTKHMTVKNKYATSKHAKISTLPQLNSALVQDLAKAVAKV

`Brc1cnc(Nc2cccc(Nc3ncc(Br)c(NCCc4c[nH]cn4)n3)c2)nc1NCCc1c[nH]cn1` [Example 28]: the IC50 in assay [1] came to 120 nM; in assay [2], 670 nM; in assay [3] it was 23 nM.
Regarding `Cc1cc(C)nc(Sc2ccc(Nc3ncc(Br)c(O[C@H](C)[C@@H](C)O)n3)cc2)n1` [Example 41], the IC50 in assay [4] was 800 nM; in assay [5] it was 98 nM; in assay [2], 60 nM; in assay [3] it was 1400 nM.

The IC50 is the midpoint of a concentration-inhibition curve. Lower therefore signals inhibition by little substance.
